The nature of data set [1]: Beagle dog oral toxicology, safety pharmacology and toxicokinetics. The data set is classed as in vivo. The following applies: high doses.
The nature of data set [2]: Phase 1a plasma pharmacokinetics of SJ733 and metabolite SJ506. In kind it is in vivo, human.
In data set [3] the test system is P. falciparum. The following applies: cited from earlier work.
Data set [4] in a line: Phase 1a safety and tolerability: adverse events, ECG, laboratory tests. In kind it is in vivo, human.
The nature of data set [5]: Cobicistat plasma pharmacokinetics. The data set is classed as in vivo, human. The following applies: 150 mg, all individuals.
The mark [6] stands for this setting: MAD and cobicistat-boosted SAD cohorts.

Here are results for two compounds from paper PMC9127571 (eBioMedicine, 2022).

In brackets after ≈: the same amount, converted by molar mass. Entries after “also recorded” stand apart in the source; their conditions may differ.

By AUC(0-inf) is commonly meant the area under the concentration-time curve extrapolated to infinity. What is called Cmax is the peak of the concentration-time curve. As to `N#Cc1cc(NC(=O)[C@H]2c3ccccc3C(=O)N(CC(F)(F)F)[C@@H]2c2cccnc2)ccc1F` [SJ733], in data set [1], the methemoglobinemia result was “Dose-dependent, reversible methemoglobinemia”. Besides, the “individuals with time above MIC >96 h” value in data set [2] (300 mg daily for 3 days) is given as 0%. Moreover, the “individuals with time above MIC >96 h” value in data set [2] (600 mg daily for 3 days) is listed as 50%. Further, the “decrease in median post-hoc apparent clearance” value in data set [2] (SAD cohorts without vs with cobicistat) turned out to be 72%. For the same compound, in data set [2] (human, plasma, oral), the AUC(0-inf) came to 104 µg·h/mL. Also, the Cmax in data set [2] (human, plasma, oral, maximal Cmax, unboosted SAD and MAD cohorts) was 2180 ng/mL. In data set [3], the “estimated minimum inhibitory concentration (MIC)” value is 0.15 µg/mL and the “minimum inhibitory concentration (MIC)” value was 0.15 µg/mL (≈ 0.32 µM). In data set [4] (setting [6]), the “relatedness of all AEs to SJ733 or cobicistat” value was “unlikely related or unrelated” and the serious adverse events entry was “no serious adverse events; also recorded: no serious AEs”. Moreover, the “post-dose QTc above 500 ms” value in data set [4] (human, in vivo, oral) is on record as “no post-dose QTc interval change above 500 ms”. The “baseline versus post-dose QTc interval change above 60 ms” value in data set [4] (instance: Day 3, 1·5 h post 300 mg, unboosted) is “one instance”.
With `CC(C)c1nc(CN(C)C(=O)N[C@@H](CCN2CCOCC2)C(=O)N[C@H](CC[C@H](Cc2ccccc2)NC(=O)OCc2cncs2)Cc2ccccc2)cs1` [cobicistat], the “time by which levels were below LLOQ (10 ng/mL)” value in data set [5] is no more than 48 h.
